Laboratory results published in patent US9498463B2, “Compound obtained from gamboge resin, and medical uses of the same” (priority 2010, dated 2016).
Converted amounts (≈) assume the structure as drawn. Like-named read-outs stand apart in the source and are kept apart here.

Legend:
[1] = test system: Human umbilical venal epithelial cell (HUVEC); test: cells; conditions: Homo sapiens, HUVEC, read-out: IC50 (50% inhibition concentration)
Source text: (§1) In Vitro Anti-Cancer Test
(§2) The in vitro anti-cancer test was primarily used to detect the effect of a candidate drug on cancer cell proliferation. The working principle involved therein is the ability of viable cells to shift alamarBlue (AbD Serotec, UK) from its originally non-fluorescent oxidized state (non-fluorescent, blue) to a reduced form (fluorescent, red) having fluorescence via metabolic reaction. According to the fluorescent data result generated by the alamarBlue reagent thus obtained, the proliferation of the viable cells and cell activity can be quantified for detection.
(§3) In the in vitro anti-cancer tests, a candidate drug was tested at 5 different concentrations of 0.01, 0.1, 1, 10, and 100 μg/ml, and six human cancer cell lines and a normal human cell line were used (see Table 5).

[2] = test system: Human breast adenocarcinoma cell MCF7; test: cells; conditions: Homo sapiens; for IC50: MCF7, read-out: IC50 (50% inhibition concentration); for CC50: MCF7, read-out: LC50 (50% lethal concentration)
Source text: as §1, §2, §3

[3] = test system: Human hepatocellular carcinoma cell HepG2; test: cells; conditions: for IC50: HepG2, read-out: IC50 (50% inhibition concentration); for CC50: HepG2, read-out: LC50 (50% lethal concentration)
Source text: as §1, §2, §3

[4] = test system: Human promyelocytic leukemia cell HL-60; test: cells; conditions: for CC50: HL-60, read-out: LC50 (50% lethal concentration)
Source text: as §1, §2, §3

[5] = test system: Human histocytic lymphoma cell U937; test: cells; conditions: for CC50: U-937, read-out: LC50 (50% lethal concentration)
Source text: as §1, §2, §3

[6] = test system: Human lung carcinoma cell A549; test: cells; conditions: for CC50: A549, read-out: LC50 (50% lethal concentration)
Source text: as §1, §2, §3

[7] = test system: Human colon adenocarcinoma cell HT-29; test: cells; conditions: for IC50: HT-29, read-out: IC50 (50% inhibition concentration); for CC50: HT-29, read-out: LC50 (50% lethal concentration)
Source text: as §1, §2, §3

in vitro = test: in vitro
Source text: as §1, §2, §3

[8] = HL-60, read-out: IC50 (50% inhibition concentration)
[9] = U-937, read-out: IC50 (50% inhibition concentration)
[10] = A549, read-out: IC50 (50% inhibition concentration)

Compound	IC50 [1]	IC50 [2]	CC50 [2]	IC50 [3]	CC50 [3]	IC50 [4, 8]	CC50 [4]	IC50 [5, 9]	CC50 [5]	IC50 [6, 10]	CC50 [6]	IC50 [7]	CC50 [7]	CC50 (in vitro)	IC50 ([5]; U-937, read-out: IC50 (50% inhibition concentration), U937)	IC50 ([4]; HL-60, read-out: IC50 (50% inhibition concentration), HL-60)	IC50 ([6]; A549, read-out: IC50 (50% inhibition concentration), A549)
CC(C)=CCC/C(C)=C/Cc1c(O)c(CC=C(C)C)c2c(c1O)C(=O)C1=CC3CC4C(C)(C)O[C@](CC=C(C)C)(C3=O)[C@@]14O2 (stereo in doubt) [Gh-4301, desoxygambogenin]	0.29 µg/mL (≈ 0.483 µM)	19 µg/mL (≈ 31.6 µM)	56 µg/mL (≈ 93.2 µM)	12 µg/mL (≈ 20 µM)	51 µg/mL (≈ 84.9 µM)	3.5 µg/mL (≈ 5.83 µM)	> 100 µg/mL	11 µg/mL (≈ 18.3 µM)	> 100 µg/mL	0.51 µg/mL (≈ 0.849 µM)	6.2 µg/mL (≈ 10.3 µM)	13 µg/mL (≈ 21.6 µM)	42 µg/mL (≈ 69.9 µM)	1.3 µg/mL (≈ 2.16 µM)			
CC(C)=CCC[C@]1(C)C=Cc2c(O)c3c(c(CC=C(C)C)c2O1)O[C@]12C(=C[C@@H]4CC1C(C)(C)O[C@]2(C/C=C(/CO)C(=O)O)C4=O)C3=O [Gh-1601-A, 30-hydroxygambogic acid]							3 µg/mL (≈ 4.65 µM)							5.4 µg/mL (≈ 8.38 µM)	0.09 µg/mL (≈ 0.14 µM)		
CC(C)=CCC[C@@]1(C)C=Cc2c(O)c3c(c(CC=C(C)C)c2O1)O[C@]12C(=C[C@@H]4CC1C(C)(C)O[C@]2(C/C=C(/CO)C(=O)O)C4=O)C3=O [Gh-1602, 30-hydroxyepigambogic acid]			4 µg/mL (≈ 6.2 µM)											0.94 µg/mL (≈ 1.46 µM)		1 µg/mL (≈ 1.55 µM)	0.4 µg/mL (≈ 0.62 µM)
CC(C)=CCC[C@]1(C)C=Cc2c(O)c3c(c(CC=C(C)C)c2O1)O[C@]12C(=C[C@@H]4CC1C(C)(C)O[C@]2(C/C=C(\C)C(=O)O)C4=O)C3=O [Gh-1641, isogambogic acid]	0.18 µg/mL (≈ 0.286 µM)	1.7 µg/mL (≈ 2.7 µM)	33 µg/mL (≈ 52.5 µM)	0.86 µg/mL (≈ 1.37 µM)	4.5 µg/mL (≈ 7.16 µM)	8 µg/mL (≈ 12.7 µM)	32 µg/mL (≈ 50.9 µM)	9.4 µg/mL (≈ 15 µM)	36 µg/mL (≈ 57.3 µM)	0.47 µg/mL (≈ 0.748 µM)	3 µg/mL (≈ 4.77 µM)	1.4 µg/mL (≈ 2.23 µM)	4.4 µg/mL (≈ 7 µM)	1.3 µg/mL (≈ 2.07 µM)			
CC(C)=CCC[C@@]1(C)C=Cc2c(O)c3c(c(CC=C(C)C)c2O1)O[C@]12C(=C[C@@H]4CC1C(C)(C)O[C@]2(C/C=C(\C)C(=O)O)C4=O)C3=O [Gh-1642, epiisogambogic acid]	0.18 µg/mL (≈ 0.286 µM)	2.4 µg/mL (≈ 3.82 µM)	29 µg/mL (≈ 46.1 µM)	1.1 µg/mL (≈ 1.75 µM)	5.3 µg/mL (≈ 8.43 µM)	6 µg/mL (≈ 9.54 µM)	35 µg/mL (≈ 55.7 µM)	8.8 µg/mL (≈ 14 µM)	33 µg/mL (≈ 52.5 µM)	0.51 µg/mL (≈ 0.811 µM)	2.8 µg/mL (≈ 4.45 µM)	1.9 µg/mL (≈ 3.02 µM)	4.8 µg/mL (≈ 7.63 µM)	1.3 µg/mL (≈ 2.07 µM)			
CC(C)=CCc1c2c(c(O)c3c1O[C@]14C(=C[C@@H]5CC1C(C)(C)O[C@]4(C/C=C(\C)C=O)C5=O)C3=O)C=CC(C)(C)O2 [Gh-2501, isomorellin]	0.26 µg/mL (≈ 0.477 µM)	1.3 µg/mL (≈ 2.39 µM)	3.7 µg/mL (≈ 6.79 µM)	2.2 µg/mL (≈ 4.04 µM)	4.5 µg/mL (≈ 8.26 µM)	1 µg/mL (≈ 1.84 µM)	4 µg/mL (≈ 7.34 µM)	0.9 µg/mL (≈ 1.65 µM)	3.1 µg/mL (≈ 5.69 µM)	0.61 µg/mL (≈ 1.12 µM)	2.1 µg/mL (≈ 3.86 µM)	2.1 µg/mL (≈ 3.86 µM)	4 µg/mL (≈ 7.34 µM)	1.8 µg/mL (≈ 3.3 µM)			
CC(C)=CCC/C(C)=C/Cc1c(O)c(CC=C(C)C)c2c(c1O)C(=O)C1=C[C@@H]3CC4C(C)(C)O[C@](C/C=C(/C)C(=O)O)(C3=O)[C@@]14O2 [Gh-2505, gambogenic acid]	0.28 µg/mL (≈ 0.444 µM)	1.9 µg/mL (≈ 3.01 µM)	19 µg/mL (≈ 30.1 µM)	2.1 µg/mL (≈ 3.33 µM)	6.5 µg/mL (≈ 10.3 µM)	0.75 µg/mL (≈ 1.19 µM)	7.2 µg/mL (≈ 11.4 µM)	1.1 µg/mL (≈ 1.74 µM)	3.7 µg/mL (≈ 5.87 µM)	0.62 µg/mL (≈ 0.983 µM)	12 µg/mL (≈ 19 µM)	2.1 µg/mL (≈ 3.33 µM)	4.4 µg/mL (≈ 6.98 µM)	2.3 µg/mL (≈ 3.65 µM)			
C=C(C)[C@@H]1CC[C@@]2(C)CC1c1c(O)c3c(c(CC=C(C)C)c1O2)O[C@]12C(=C[C@@H]4CC1C(C)(C)O[C@]2(/C=C/C(C)C(=O)O)C4=O)C3=O (stereo partly drawn) [Gh-2507, 3-butenoic acid, 2-methyl-4-[(1R,3aS,5S,9S,10R,13S,16aS)-3a,4,5,7,10,11,12,13-octahydro-8-hydroxy-3,3,13-trimethyl-15-(3-methyl-2-butenyl)-10-(1-methylethenyl)-7,18-dioxo-1,5:9,13-dimethano-1H,3H,9H-furo[3.4-g]oxocino[3.2-b]xanthen-1-yl],(3E)-]	0.41 µg/mL (≈ 0.652 µM)	0.19 µg/mL (≈ 0.302 µM)	2.2 µg/mL (≈ 3.5 µM)	1.7 µg/mL (≈ 2.7 µM)	7.1 µg/mL (≈ 11.3 µM)	0.2 µg/mL (≈ 0.318 µM)	5.3 µg/mL (≈ 8.43 µM)	0.45 µg/mL (≈ 0.716 µM)	2.7 µg/mL (≈ 4.29 µM)	0.13 µg/mL (≈ 0.207 µM)	0.53 µg/mL (≈ 0.843 µM)	1.6 µg/mL (≈ 2.54 µM)	8.6 µg/mL (≈ 13.7 µM)	21 µg/mL (≈ 33.4 µM)			
C=C(C)C1CC[C@]2(C)C[C@H]1c1c(O)c3c(c(CC=C(C)C)c1O2)O[C@]12C(=C[C@@H]4CC1C(C)(C)O[C@]2(/C=C/C(C)C(=O)O)C4=O)C3=O (stereo partly drawn) [Gh-2508, 3-butenoic acid, 2-methyl-4-[(1R,3aS,5S,9R,10S,13R,16aS)-3a,4,5,7,10,11,12,13-octahydro-8-hydroxy-3,3,13-trimethyl-15-(3-methyl-2-butenyl)-10-(1-methylethenyl)-7,18-dioxo-1,5:9,13-dimethano-1H,3H,9H-furo[3.4-g]oxocino[3.2-b]xanthen-1-yl]-,(3E)-]	0.52 µg/mL (≈ 0.827 µM)	0.087 µg/mL (≈ 0.138 µM)	1.7 µg/mL (≈ 2.7 µM)	1.9 µg/mL (≈ 3.02 µM)	5.9 µg/mL (≈ 9.38 µM)	0.28 µg/mL (≈ 0.445 µM)	6.6 µg/mL (≈ 10.5 µM)	0.28 µg/mL (≈ 0.445 µM)	2.2 µg/mL (≈ 3.5 µM)	0.16 µg/mL (≈ 0.254 µM)	0.46 µg/mL (≈ 0.732 µM)	1.8 µg/mL (≈ 2.86 µM)	5.5 µg/mL (≈ 8.75 µM)	5.4 µg/mL (≈ 8.59 µM)			
C=C(C)[C@@H]1CC[C@@]2(C)CC1c1c(O)c3c(c(CC=C(C)C)c1O2)O[C@]12C(=C[C@@H]4CC1C(C)(C)O[C@]2(C/C=C(/C)C(=O)O)C4=O)C3=O [Gh-2603-1, 2-butenoic acid, 2-methyl-4-[(1R,3aS,5S,9S,10R,13S,16aS)-3a,4,5,7,10,11,12,13-octahydro-8-hydroxy-3,3,13-trimethyl-15-(3-methyl-2-butenyl)-10-(1-methylethenyl)-7,18-dioxo-1,5:9,13-dimethano-1H,3H,9H-furo[3.4-g]oxocino[3.2-b]xanthen-1-yl]-,(2Z)-]				1 µg/mL (≈ 1.59 µM)		1 µg/mL (≈ 1.59 µM)								1.7 µg/mL (≈ 2.7 µM)			
CC(C)=CCC[C@]1(C)C=Cc2c(O)c3c(c(CC=C(C)C)c2O1)O[C@]12C(=CC4CC1C(C)(C)O[C@]2(C/C=C(/C)C(=O)O)C4=O)C3=O [Gh-2605, gambogic acid]	0.098 µg/mL (≈ 0.156 µM)	4.4 µg/mL (≈ 7 µM)	5.9 µg/mL (≈ 9.38 µM)	0.23 µg/mL (≈ 0.366 µM)	3.5 µg/mL (≈ 5.57 µM)	0.17 µg/mL (≈ 0.27 µM)	2.9 µg/mL (≈ 4.61 µM)	0.76 µg/mL (≈ 1.21 µM)	2.9 µg/mL (≈ 4.61 µM)	0.12 µg/mL (≈ 0.191 µM)	0.37 µg/mL (≈ 0.588 µM)	0.18 µg/mL (≈ 0.286 µM)	0.61 µg/mL (≈ 0.97 µM)	1.6 µg/mL (≈ 2.54 µM)			
CC(C)=CCC[C@@]1(C)C=Cc2c(O)c3c(c(CC=C(C)C)c2O1)O[C@]12C(=C[C@@H]4CC1C(C)(C)O[C@]2(C/C=C(/C)C(=O)O)C4=O)C3=O [Gh-2606, epigambogic acid]	0.11 µg/mL (≈ 0.175 µM)	1.3 µg/mL (≈ 2.07 µM)	1.6 µg/mL (≈ 2.54 µM)	0.38 µg/mL (≈ 0.604 µM)	3 µg/mL (≈ 4.77 µM)	0.66 µg/mL (≈ 1.05 µM)	2.4 µg/mL (≈ 3.82 µM)	0.41 µg/mL (≈ 0.652 µM)	3.1 µg/mL (≈ 4.93 µM)	0.1 µg/mL (≈ 0.159 µM)	0.31 µg/mL (≈ 0.493 µM)	0.39 µg/mL (≈ 0.62 µM)	2 µg/mL (≈ 3.18 µM)	1.4 µg/mL (≈ 2.23 µM)			
CC(C)=CCc1c2c(c(O)c3c1O[C@@]1(C)CCC4C3C1C4(C)C)C(=O)C1=C[C@@H]3CC4C(C)(C)O[C@](C/C=C(/C)C(=O)O)(C3=O)[C@@]14O2 [Gh-2607-1A]	0.43 µg/mL (≈ 0.684 µM)	0.12 µg/mL (≈ 0.191 µM)	1.5 µg/mL (≈ 2.39 µM)	0.43 µg/mL (≈ 0.684 µM)	3.9 µg/mL (≈ 6.2 µM)	0.49 µg/mL (≈ 0.779 µM)	2.6 µg/mL (≈ 4.14 µM)	0.15 µg/mL (≈ 0.239 µM)	0.37 µg/mL (≈ 0.588 µM)	0.19 µg/mL (≈ 0.302 µM)	0.45 µg/mL (≈ 0.716 µM)	0.24 µg/mL (≈ 0.382 µM)	0.84 µg/mL (≈ 1.34 µM)	1.5 µg/mL (≈ 2.39 µM)			
